Measurements: US20220267310A1, “QUINAZOLINE AND CINNOLINE DERIVATIVES AS DNA-PK INHIBITOR” (MEDSHINE DISCOVERY INC., priority 2019, published 2022)

Experiments:
DNA-PK (h) = biological target: T1, DNA-PK (h) (Homo sapiens, UniProt P78527); test: DNA-PK kinase inhibitory activity (HTRF, Eurofins); type: biochemical; conditions: ATP: 10 μM
T1 construct: Eurofins Pharma Discovery Service (contract assay)
Method: (§1) This experiment was tested at Eurofins Pharma Discovery Service, Reaction Biology Corp. (RBC)
(§2) […] DNA-PK: Mg/ATP; GST-cMyc-p53; EDTA; Ser15 antibody; ATP: 10 μM; biotinylated phosphatidylinositol-3,4,5-triphosphate; GST label GRP1 PH domain; streptavidin and phycocyanin; europium-labelled monoclonal antibody against GST.
DNA-PK (h) was incubated in a determination buffer containing 50 nM GST-cMyc-p53 and Mg/ATP (density as required). The reaction was initiated by adding a mixture of Mg/ATP. After incubating at room temperature for 30 min, a termination solution containing EDTA was added to terminate the reaction. Finally, a detection buffer (containing labeled anti-GST monoclonal antibody and europium-labeled anti-phosphate Ser15 antibody against phosphorylated p53) was added. Then, the board was read in time-resolved fluorescence mode, and a Homogeneous Time Resolved Fluorescence (HTRF) signal was measured according to the formula HTRF=10000×(Em665 nm/Em620 nm).

PI3K (p110α/p85α) = biological target: T2, PI3K (p110α/p85α) (Homo sapiens, UniProt P42336); test: PI3K (p110α/p85α) kinase inhibitory activity (HTRF); type: biochemical
T2 construct: Eurofins Pharma Discovery Service (contract assay)
Method: as §1, §2
PI3K (p110α/p85α) was incubated in a determination buffer containing phosphatidylinositol 4,5-diphosphate and Mg/ATP (density as required). The reaction was initiated by adding an ATP solution. After incubating at room temperature for 30 min, a termination solution containing EDTA and biotinylated phosphatidylinositol-3,4,5-triphosphate was added to terminate the reaction. Finally, a detection buffer (containing labeled anti-GST monoclonal antibody, PH domain of GRP1 with GST label and streptavidin and phycyanin and […]) was added. Then, the board was read in time-resolved fluorescence mode, and an HTRF signal was measured according to the formula HTRF=10000×(Em665 nm/Em620 nm).

[1] = Pharmacokinetic evaluation in mice, IV and PO; type: in vivo, Balb/c female mice; conditions: for Tlast / AUC(0-t) / C0 / clearance / half-life / Vd / Cmax / Tmax: mouse plasma; for bioavailability / AUC(0-t) / C0 / clearance / half-life / Vd / Cmax / Tmax: female, Balb/c; for bioavailability: plasma, mouse; for Vd: read-out: Vdss; for Tmax: read-out: Tmax
Method: The tested compound was mixed with 10% DMSO/50% PEG400/40% water, vortexized and ultrasonic to prepare 0.2 mg/mL or 0.4 mg/ml, approximately clarified solution, which was filtered by a microporous membrane and then standby. Balb/c female mice of 18-20 g were selected and given the candidate compound solution intravenously at a dose of 1 or 2 mg/kg. The tested compound was mixed with 10% DMSO/50% PEG400/40% water, vortexized and ultrasonic to prepare 0.2 mg/mL or 1 mg/mL approximately clarified solution, which was filtered by a microporous membrane and then standby. Balb/c female mice of 18 to 20 g were selected and given orally the candidate compound solution at a dose of 2 or 10 mg/kg. Whole blood was collected for a certain period of time, and plasma was prepared. Drug concentration was analyzed by LC-MS/MS method, and pharmacokinetic parameters were calculated by Phoenix WinNonlin software (US Pharsight company).
C0: instantaneous concentration required after intravenous injection; Cmax: the highest blood concentration after administration; Tmax: time required to reach peak concentration after administration; T1/2: the time required for blood drug concentration to decrease by half; Vdss: apparent volume of distribution, which refers to the ratio constant of drug dosage to blood concentration when a drug reaches dynamic equilibrium in vivo. Cl: clearance rate, referring to drug apparent distribution volume number removed from the body per unit time; Tlast: time of last detection point: AUC0-last: an area under a drug duration curve, referring to an area surrounded by the blood drug concentration curve on the time axis; Bioavailability: a measure of the rate and extent of drug absorption into the blood circulation, which was an important index to evaluate drug absorption degree.

PI3K (p110σ/p85α) = biological target: T3, PI3K (p110σ/p85α) (Homo sapiens, UniProt O00329); test: PI3K (p110σ/p85α) kinase inhibitory activity (HTRF); type: biochemical
T3 construct: Eurofins Pharma Discovery Service (contract assay)

[2] = test system: human small cell lung cancer NCI-H69 xenograft tumor model; test: NCI-H69 xenograft, mono and combination with etoposide, 24-day experiment (Table 8); type: in vivo, BALB/c nude mice; conditions: etoposide 10 mg/kg alone
Method: Experiment example 3: in vivo pharmacodynamics of human small cell lung cancer NCI-H69 cell subcutaneous xenograft tumor BALB/c nude mouse model:
Experimental animals: Female BALB/c nude mice, 6-8 weeks old, weighing 15-22 grams; supplier: Shanghai Linchang Biotechnology Co., LTD. (Linchang, Shanghai)
Human small cell lung cancer NCI-H69 cells (ATCC, item number: HTB-119 and ECACC-95111733) were cultured in vitro in a culture condition of RPMI-1640 medium with 10% fetal bovine serum, 100 U/mL penicillin and 100 μg/mL streptomycin, incubated at 37° C. and 5% CO2. Conventional passage was carried out twice a week. When cell saturation was 80%-90% and the number reaches the requirement, cells were collected, counted and inoculated.
0.2 mL (10×10^6) NCI-H69 cells (with matrix glue, and volume ratio of 1:1) were subcutaneously inoculated into a right back of each mouse, and group administration was initiated when the average tumor volume reaches about 110-120 mm^3.
The tested compound was prepared as a 5 mg/mL clarified solution with 10% DMSO+50% polyethylene glycol 400+40% water as the solvent.
The experimental indicators refers to study whether tumor growth was inhibited, delayed, or cured. Tumor diameter was measured twice a week with a vernier caliper. The calculation formula of the tumor volume was V=0.5a×b^2, and a and b represent the long diameter and short diameter of the tumor, respectively.
The antitumor efficacy of the compound was evaluated by TGI (%) or relative tumor proliferation rate T/C (%). TGI (%) reflects the tumor growth inhibition rate. The calculation of TGI (%): TGI (%)=[1−(average tumor volume at the end of administration of a certain treatment group−average tumor volume at the beginning of administration of the treatment group)/(average tumor volume at the end of treatment in solvent control group−average tumor volume at the beginning of treatment in solvent control group)]×control group.
Relative tumor proliferation rate T/C (%): the calculation formula was as follows: T/C %=[…] TRTV/CRTV group (TRTV: treatment group RTV; CRTV: negative control group RTV). According to results of tumor measurement, Relative Tumor Volume (RTV) was calculated by the formula RTV=Vt/V0, where V0 was the average tumor volume measured in group administration (i.e., d0), and Vt was the average tumor volume measured in a certain single measurement. TRTV and CRTV collect data on the same day.
Statistic analysis includes an average value and a standard error (SEM) of tumor volume at each time point for each group. […] If there was no significant difference in F value, Dunnet (2-sided) method was applied to analysis. All data were analyzed using SPSS 17.0. P<0.05 was considered as having a significant difference.

T2 sequence (P42336 whole entry, species assumed): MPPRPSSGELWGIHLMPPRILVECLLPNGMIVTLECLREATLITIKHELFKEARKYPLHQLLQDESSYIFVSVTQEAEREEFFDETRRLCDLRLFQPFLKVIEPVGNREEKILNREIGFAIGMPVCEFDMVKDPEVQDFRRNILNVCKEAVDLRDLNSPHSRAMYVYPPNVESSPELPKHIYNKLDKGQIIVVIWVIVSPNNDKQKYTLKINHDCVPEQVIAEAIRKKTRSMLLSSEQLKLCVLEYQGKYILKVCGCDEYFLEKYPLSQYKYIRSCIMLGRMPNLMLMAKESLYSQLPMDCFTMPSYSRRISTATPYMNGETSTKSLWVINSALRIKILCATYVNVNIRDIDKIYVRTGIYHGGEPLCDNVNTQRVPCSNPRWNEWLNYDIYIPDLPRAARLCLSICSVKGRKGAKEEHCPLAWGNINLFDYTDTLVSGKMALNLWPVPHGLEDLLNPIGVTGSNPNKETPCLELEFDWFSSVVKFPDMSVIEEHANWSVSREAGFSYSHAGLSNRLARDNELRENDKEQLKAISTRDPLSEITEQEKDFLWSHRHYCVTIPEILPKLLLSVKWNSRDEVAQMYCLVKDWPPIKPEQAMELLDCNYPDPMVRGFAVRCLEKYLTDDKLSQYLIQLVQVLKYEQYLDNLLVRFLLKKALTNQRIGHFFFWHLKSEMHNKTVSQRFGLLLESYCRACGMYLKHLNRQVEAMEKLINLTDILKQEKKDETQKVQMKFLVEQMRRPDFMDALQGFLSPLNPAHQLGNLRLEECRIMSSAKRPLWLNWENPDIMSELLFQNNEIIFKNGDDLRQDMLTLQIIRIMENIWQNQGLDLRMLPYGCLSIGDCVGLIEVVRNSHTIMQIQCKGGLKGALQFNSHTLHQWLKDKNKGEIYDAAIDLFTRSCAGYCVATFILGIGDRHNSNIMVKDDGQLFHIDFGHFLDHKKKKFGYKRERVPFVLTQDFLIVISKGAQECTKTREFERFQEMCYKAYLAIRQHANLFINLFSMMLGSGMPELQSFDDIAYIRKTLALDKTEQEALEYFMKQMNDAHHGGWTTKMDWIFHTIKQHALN
T2 sequence (P27986 whole entry partner, species assumed): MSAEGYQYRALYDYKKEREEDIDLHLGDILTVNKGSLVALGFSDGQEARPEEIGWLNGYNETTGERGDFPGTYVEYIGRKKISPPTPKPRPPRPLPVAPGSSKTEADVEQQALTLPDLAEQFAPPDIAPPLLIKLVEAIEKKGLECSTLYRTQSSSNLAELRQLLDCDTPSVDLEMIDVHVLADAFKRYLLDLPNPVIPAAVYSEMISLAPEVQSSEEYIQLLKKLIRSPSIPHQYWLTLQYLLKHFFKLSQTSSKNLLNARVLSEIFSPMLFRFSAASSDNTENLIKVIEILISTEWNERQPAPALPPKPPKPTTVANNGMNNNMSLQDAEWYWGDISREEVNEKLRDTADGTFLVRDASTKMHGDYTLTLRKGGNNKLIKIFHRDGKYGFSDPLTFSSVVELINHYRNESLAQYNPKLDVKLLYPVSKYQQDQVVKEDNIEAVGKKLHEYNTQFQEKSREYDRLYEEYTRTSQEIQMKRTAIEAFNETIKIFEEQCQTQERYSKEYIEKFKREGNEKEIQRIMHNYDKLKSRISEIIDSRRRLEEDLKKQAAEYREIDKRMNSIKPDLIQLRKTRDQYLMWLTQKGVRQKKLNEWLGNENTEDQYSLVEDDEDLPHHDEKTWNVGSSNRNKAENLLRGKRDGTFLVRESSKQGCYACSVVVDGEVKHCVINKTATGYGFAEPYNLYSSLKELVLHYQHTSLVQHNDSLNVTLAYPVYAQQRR
T3 sequence (O00329 whole entry): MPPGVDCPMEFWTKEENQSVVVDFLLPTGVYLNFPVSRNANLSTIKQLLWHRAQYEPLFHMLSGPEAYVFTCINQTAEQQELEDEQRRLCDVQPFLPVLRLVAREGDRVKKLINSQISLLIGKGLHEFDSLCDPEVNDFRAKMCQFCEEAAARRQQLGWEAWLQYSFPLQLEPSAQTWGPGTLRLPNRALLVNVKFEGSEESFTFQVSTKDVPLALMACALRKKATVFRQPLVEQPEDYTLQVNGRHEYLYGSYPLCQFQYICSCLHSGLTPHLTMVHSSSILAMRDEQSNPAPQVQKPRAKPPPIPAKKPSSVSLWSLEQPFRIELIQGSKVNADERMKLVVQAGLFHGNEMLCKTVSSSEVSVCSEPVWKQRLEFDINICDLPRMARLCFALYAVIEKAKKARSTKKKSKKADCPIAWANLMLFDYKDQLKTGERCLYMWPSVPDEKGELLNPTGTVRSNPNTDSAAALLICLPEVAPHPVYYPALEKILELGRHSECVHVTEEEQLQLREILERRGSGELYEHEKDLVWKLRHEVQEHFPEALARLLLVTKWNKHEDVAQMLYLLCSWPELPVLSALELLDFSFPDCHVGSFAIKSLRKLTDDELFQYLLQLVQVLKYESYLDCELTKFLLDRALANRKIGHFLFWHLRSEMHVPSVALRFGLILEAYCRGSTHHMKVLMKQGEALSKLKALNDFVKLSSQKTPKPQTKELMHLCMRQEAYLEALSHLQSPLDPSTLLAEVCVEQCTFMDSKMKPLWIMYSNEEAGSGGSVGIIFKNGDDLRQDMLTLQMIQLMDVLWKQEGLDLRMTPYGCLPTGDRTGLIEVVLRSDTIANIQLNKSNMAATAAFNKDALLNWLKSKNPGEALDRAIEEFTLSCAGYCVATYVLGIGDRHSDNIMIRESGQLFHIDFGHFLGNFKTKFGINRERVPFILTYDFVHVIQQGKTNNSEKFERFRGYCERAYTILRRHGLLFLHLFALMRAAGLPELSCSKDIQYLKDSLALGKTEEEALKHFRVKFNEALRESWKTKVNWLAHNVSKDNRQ
T3 sequence (P27986 whole entry partner): as the sequence (P27986 whole entry partner, species assumed) above

SMILES: Cc1nccnc1C(O)c1cc(-c2ccnc3c(F)c(N4CCOCC4)cc(F)c23)c(F)cc1Cl (single isomer, unassigned) [Embodiment 24]
- IC50 (DNA-PK (h)): 5.7 nM

SMILES: COc1ccc(C(O)c2cc(-c3ccnc4c(F)c(N5CCOCC5)cc(F)c34)c(F)cc2Cl)nn1 (single isomer, unassigned) [Embodiment 21]
- IC50 (DNA-PK (h)): 76 nM

SMILES: COc1ccc(C(O)c2cc(-c3cnnc4c(F)c(N5CCOCC5)ccc34)c(F)cc2Cl)nn1 (single isomer, unassigned) [Embodiment 8]
- IC50 (DNA-PK (h)): 138 nM

SMILES: COc1ccc(C(O)c2cc(-c3cnnc4c(F)c(N5CCOCC5)cc(F)c34)c(F)cc2Cl)nn1 (single isomer, unassigned) [Embodiment 20]
- IC50 (DNA-PK (h)): 136 nM

SMILES: COc1ccc(C(O)c2cc(-c3cc(N)nc4c(F)c(N5CCOCC5)ccc34)c(F)cc2Cl)nn1 (single isomer, unassigned) [Embodiment 10]
- IC50 (DNA-PK (h)): 0.5 nM

SMILES: Cc1nccnc1C(O)c1cc(-c2cnnc3c(F)c(N4CCOCC4)cc(F)c23)c(F)cc1Cl (single isomer, unassigned) [Embodiment 18]
- IC50 (DNA-PK (h)): 33 nM

SMILES: COc1ccc(C(O)c2cc(-c3cnnc4cc(N5CCOCC5)ccc34)c(F)cc2Cl)nn1 (centres unmarked) [Embodiment 3]
- IC50 (PI3K (p110α/p85α)): 509 nM
- Tlast ([1]; IV(1 mg/kg)): 8.00 h
- Tlast ([1]; PO(2 mg/kg)): 8.00 h
- bioavailability ([1]; PO(2 mg/kg)): 48.2%
- AUC(0-t) ([1]; IV(1 mg/kg)): 1.85 µM·h
- C0 ([1]; IV(1 mg/kg)): 1260 nM
- clearance ([1]; IV(1 mg/kg)): 17.9 mL/min/kg
- half-life ([1]; IV(1 mg/kg)): 1.27 h
- Vd ([1]; IV(1 mg/kg)): 1.42 L/kg
- AUC(0-t) ([1]; PO(2 mg/kg)): 1.79 µM·h
- Cmax ([1]; PO(2 mg/kg)): 459 nM
- half-life ([1]; PO(2 mg/kg)): 2.83 h
- Tmax ([1]; PO(2 mg/kg)): 0.5 h
- IC50 (DNA-PK (h)): 3.5 nM
- IC50 (PI3K (p110σ/p85α)): 132 nM

SMILES: COc1ccc(C(O)c2cc(-c3ccnc4c(F)c(N5CCOCC5)cc(F)c34)c(F)cc2Cl)nn1 (single isomer, unassigned) [Embodiment 22]
- IC50 (PI3K (p110α/p85α)): 43 nM
- Tlast ([1]; IV(1 mg/kg)): 8.00 h
- Tlast ([1]; PO(2 mg/kg)): 8.00 h
- bioavailability ([1]; PO(2 mg/kg)): 50%
- AUC(0-t) ([1]; IV(1 mg/kg)): 1.98 µM·h
- C0 ([1]; IV(1 mg/kg)): 1380 nM
- clearance ([1]; IV(1 mg/kg)): 15.4 mL/min/kg
- half-life ([1]; IV(1 mg/kg)): 1.89 h
- Vd ([1]; IV(1 mg/kg)): 2.32 L/kg
- AUC(0-t) ([1]; PO(2 mg/kg)): 1.98 µM·h
- Cmax ([1]; PO(2 mg/kg)): 456 nM
- half-life ([1]; PO(2 mg/kg)): 6.25 h
- Tmax ([1]; PO(2 mg/kg)): 1 h
- IC50 (DNA-PK (h)): 0.8 nM
- IC50 (PI3K (p110σ/p85α)): 47 nM

SMILES: COc1ccc(C(O)c2cc(-c3cc(N)nc4c(F)c(N5CCOCC5)ccc34)c(F)cc2Cl)nn1 (single isomer, unassigned) [Embodiment 9]
- IC50 (DNA-PK (h)): 840 nM

SMILES: COc1cc([C@@H]2c3cc4c(cc3[C@@H](O[C@@H]3O[C@@H]5CO[C@@H](C)O[C@H]5[C@H](O)[C@H]3O)[C@H]3COC(=O)[C@H]23)OCO4)cc(OC)c1O [Etoposide, etoposide, reference compound]
- RTV (24th day) [2]: 6.09 ± 0.85
- T/C (%) (24th day) [2]: 75.6%
- TGI (%) (24th day) [2]: 33.4%
- Tumor volume (mm^3) (0th day) ([2]; average ± SEM, n = 9): 114 ± 9 mm^3
- Tumor volume (mm^3) (24th day) ([2]; average ± SEM, n = 9): 654 + 48 mm^3

SMILES: COc1ccc(C(O)c2cc(-c3cc(N)nc4cc(N5CCOCC5)ccc34)c(F)cc2Cl)nn1 (centres unmarked) [Embodiment 11]
- IC50 (DNA-PK (h)): 4.7 nM

SMILES: COc1ccc(C(O)c2cc(-c3cc(N)nc4cc(N5CCOCC5)cc(F)c34)c(F)cc2Cl)nn1 (centres unmarked) [Embodiment 13]
- IC50 (DNA-PK (h)): 141 nM

SMILES: COc1ccc(C(O)c2cc(-c3ccnc4c(Cl)c(N5CCOCC5)ccc34)c(F)cc2Cl)nn1 (single isomer, unassigned) [Embodiment 6]
- IC50 (DNA-PK (h)): 8 nM

SMILES: COc1ccc(C(O)c2cc(-c3cc(OC)nc4cc(N5CCOCC5)ccc34)c(F)cc2Cl)nn1 (single isomer, unassigned) [Embodiment 25]
- IC50 (DNA-PK (h)): 13100 nM

SMILES: COc1ccc(C(O)c2cc(-c3ccnc4c(Cl)c(N5CCOCC5)ccc34)c(F)cc2Cl)nn1 (single isomer, unassigned) [Embodiment 5]
- IC50 (DNA-PK (h)): 307 nM

SMILES: Cc1nccnc1C(O)c1cc(-c2cnnc3c(F)c(N4CCOCC4)cc(F)c23)c(F)cc1Cl (centres unmarked) [Embodiment 17]
- IC50 (DNA-PK (h)): 15 nM

SMILES: COc1ccc(C(O)c2cc(-c3cnnc4cc(N5CCOCC5)ccc34)c(F)cc2Cl)nn1 (single isomer, unassigned) [Embodiment 4]
- IC50 (DNA-PK (h)): 587 nM

SMILES: COc1ccc(C(O)c2cc(-c3cc(N)nc4cc(N5CCOCC5)cc(F)c34)c(F)cc2Cl)nn1 (single isomer, unassigned) [Embodiment 14]
- IC50 (DNA-PK (h)): 2.7 nM

SMILES: COc1ccc(C(O)c2cc(-c3ccnc4cc(N5CCOCC5)ccc34)c(F)cc2Cl)nn1 (single isomer, unassigned) [Embodiment 1]
- IC50 (DNA-PK (h)): 82 nM

SMILES: COc1ccc(C(O)c2cc(-c3cnnc4c(F)c(N5CCOCC5)ccc34)c(F)cc2Cl)nn1 (centres unmarked) [Embodiment 7]
- IC50 (DNA-PK (h)): 1.5 nM

SMILES: Cc1nccnc1C(O)c1cc(-c2ccnc3c(F)c(N4CCOCC4)cc(F)c23)c(F)cc1Cl (centres unmarked) [Embodiment 23]
- IC50 (DNA-PK (h)): 8.7 nM

SMILES: COc1ccc(C(O)c2cc(-c3cc(C(F)F)nc4cc(N5CCOCC5)ccc34)c(F)cc2Cl)nn1 (single isomer, unassigned) [Embodiment 16]
- IC50 (DNA-PK (h)): 4250 nM

SMILES: COc1ccc(C(O)c2cc(-c3cc(N)nc4cc(N5CCOCC5)ccc34)c(F)cc2Cl)nn1 (single isomer, unassigned) [Embodiment 12]
- IC50 (DNA-PK (h)): 657 nM

SMILES: COc1ccc(C(O)c2cc(-c3cc(C(F)F)nc4cc(N5CCOCC5)ccc34)c(F)cc2Cl)nn1 (single isomer, unassigned) [Embodiment 15]
- IC50 (DNA-PK (h)): 71 nM
